From the NIST ThermoML archive (doi:10.1016/j.fluid.2013.10.038)

Experiment: excess molar enthalpy (molar enthalpy of mixing); xn = mol fraction of the nth substance listed
Details: Liquid, Flow calorimetry

CCOC(C)=O [ethyl acetate] + O=C=O
excess molar enthalpy [kJ/mol]
Details | 298.15 K | 303.15 K | 308.15 K
5000 kPa, x2 = 0.099 | -1.19 | -1.23 | -1.45
5000 kPa, x2 = 0.199 | -2.37 | -2.44 | -2.33
5000 kPa, x2 = 0.3 | -3.5 | -3.64 | -3.51
5000 kPa, x2 = 0.4 | -4.63 | -4.75 | -4.61
5000 kPa, x2 = 0.5 | -5.72 | – | –
6000 kPa, x2 = 0.101 | -1.05 | -1.15 | -1.15
6000 kPa, x2 = 0.2 | -2.14 | -2.24 | -2.27
6000 kPa, x2 = 0.3 | -3.17 | -3.32 | -3.31
6000 kPa, x2 = 0.399 | -4.12 | -4.34 | -4.38
6000 kPa, x2 = 0.5 | -5.08 | -5.31 | –
7000 kPa, x2 = 0.1 | -0.383 | -0.903 | -0.994
7000 kPa, x2 = 0.2 | -0.7 | -1.81 | -1.98
7000 kPa, x2 = 0.299 | -1 | -2.71 | -2.96
7000 kPa, x2 = 0.4 | -1.27 | -3.55 | -3.88
7000 kPa, x2 = 0.5 | – | -4.28 | -4.73
